Test results from US6989375B2, “Enhanced expression of transgenes” (priority 1996, dated 2006).

Experiments:
[1] = tested on: p53 protein in H1299 cells; assay: Western blot analysis of p53 protein expression with densitometry; type: cell-based, human; settings: CDDP = prior CDDP exposure, Adv/CMV/p53 = without prior CDDP
Method: H1299 cells were infected with Ad/CMV/p53 (MOI=1) 48 hrs after CDDP exposure. Cells were then harvested at 6, 12, 24, 36 and 48 hrs after transfection for Western blot analysis of p53 protein expression, as described elsewhere (Diller et al., 1990). Unexposed cells similarly transfected with Ad/CMV/p53 were used as controls. The human NSCLC cell line H322 which overexpresses mutant p53 protein was used as a positive control. Relative quantities of exogenous p53 protein were determined by densitometer (Molecular Dynamics, Sunnyvale, Calif.).

H1299 cells = assay: Cell proliferation assay (daily cell counts); type: cell-based, human; settings: for Increased inhibition of tumor proliferation compared to cells transfected with Adv/CMV/p53 only: CDDP 48 hrs prior to Adv/CMV/p53 (MOI 5)
Method: H1299 cells were exposed to CDDP (0.062 μg/ml of medium) for 24 hrs. Cells were then washed twice with PBS, trypsinized and seeded in 6-well plates (10^5 cells/well). Forty eight hours later, cells were infected with Ad/CMV/p53 at the multiplicity of infection (MOI) of 5. Daily cell counts were performed for 5 days following transfection to study the tumor suppression effect of the combination of sequential CDDP and adenovirus-mediated p53 gene transfer. Controls consisted of untreated cells or cells exposed to CDDP only, cells transfected with Ad/CMV/p53 only and cells transfected with d1312 (similar MOI) with or without prior CDDP treatment.

[2] = tested on: subcutaneous H1299 tumors; assay: In vivo CDDP-induced enhancement of β-gal gene expression in subcutaneous tumors; design: species or system nude mice
Method: Subcutaneous (SC) tumor nodules were created by injecting 1×10^7 H1299 cells suspended in 100 μl of PBS into the dorsal flank SC tissue of nude mice (nu/nu, Charles River, Wilmington, Mass.) that had received 350 Rads of total body irradiation. Tumors, approximately 250 mm^3 in size, consistently formed within 3 to 4 weeks of tumor cell implantation. Intratumoral injections of Ad/CMV/β-gal (5×10^8 viral particles) were done at 0, 2, 4, and 6 days following an intraperitoneal injection of CDDP (5 μg/g body weight in 100 μl of PBS) or PBS only (n=4 per groups). The tumors were excised 48 hours after adenovirus injection, washed in cold PBS, embedded in tissue freezing medium (Fisher Scientific, Houston, Tex.) and snap-frozen by immersion in 2-methylbutane which was chilled over liquid nitrogen. Serial frozen sections (8μ, thick) of the tumor mass obtained at 2-mm intervals were fixed and stained with X-gal as previously described (Ponder et al., 1991) and then counterstained with nuclear fast red (PolyScientific, Bay Shore, N.Y.). Quantitative assessment of β-gal gene expression (blue cells) was determined by digital image analysis (Samba 4000, Immuno Software, Version 3.0; Image Products International, Inc., Chantilly, Va.) for each tumor section. In vivo β-gal gene transduction of tumor masses was calculated as the mean of the percentage of blue cells per surface area of representative sections. Tumor-bearing animals receiving intraperitoneal injection of PBS and subsequent intratumoral injection of Ad/CMV/β-gal at identical time points, served as controls. The magnitude of enhancement was calculated by dividing values from CDDP and Ad/CMV/β-gal treated tumors by values from Ad/CMV/β-gal control treated tumors.

H460 cells [3] = assay: Cell growth after 24-hour incubation with CDDP; type: cell-based, human
H460 cells [4] = assay: β-gal expression by X-gal staining after Ad/CMV/β-gal infection of CDDP-treated cells; type: cell-based, human
Method: Gene Delivery Protocol: In vitro gene delivery was performed by incubating cells in six-well plates (Falcon Plastics, Lincoln Park, N.J.) for two hours with Adv/CMV/β-gal in appropriate medium supplemented with 2% FCS. The multiplicity of infection (MOI: number of viral particles per target cell) was based on cell counts of untreated wells. Fresh, complete medium with the appropriate concentration of FCS was then added to the wells at the end of the infection period and cells were then incubated for 20 hours at 37° C., 5% CO2. After washing the cells with ice cold PBS, the cells were fixed with ice-cold 1.25% glutaraldehyde and stained with X-gal (5-bromo-4-chloro-3-indolyl-β-d-galactoside; Gibco BRL) as previously described (MacGregor et al., 1987). The transduction efficiency by Adv/CMV/β-gal was determined by the percentage of positive stained cells (blue) for β-galactosidase activity (1000 cells counted per well).
Time Course and Dose Response: To determine the time course of enhancement, H1299 and H460 cells were seeded in 6-well plates (2×10^5 cells/2 mls/well). After an overnight incubation period (37° C., 5% CO2), the initial medium was replaced with freshly prepared media (2 ml) containing 0.062 μg/ml CDDP (Sigma Chemicals, St. Louis, Mo.) (CDDP was prepared fresh by dissolving in distilled water) and the cells were then incubated for 24 hours at 37° C., with 5% CO2. CDDP-treated cells were then washed twice with PBS and subsequently infected with Ad/CMV/β-gal (MOI=1 for H1299 and MOI=5 for H460) on days 0, 1, 2, 3, 4, 5 or 6 following CDDP removal, to determine the time point at which maximal enhancement of expression was occurring. To establish the dose of CDDP needed to produce maximum enhancement, the cells were treated with different concentrations of CDDP (serial, 1:4 dilutions, ranging from 4 μg/ml to 0.0002 μg/ml, 5 ml per 60 mm dish) for 24 hours and subsequently incubated with Ad/CMV/β-gal 48 hours after removal of CDDP. […]

`N.N.[Cl][Pt][Cl]` [CDDP, cis-dichlorodimminocisplatin] was tested, and the “Relative level of p53 protein (normalized for β-actin)” value ([1]; 12 hrs after Adv/CMV/p53 transfection (MOI=1)) was 0.73, the “Relative level of p53 protein (normalized for β-actin)” value ([1]; 24 hrs after Adv/CMV/p53 transfection (MOI=1)) was 1.39 and the “Relative level of p53 protein (normalized for β-actin)” value ([1]; 36 hrs after Adv/CMV/p53 transfection (MOI=1)) was 1.49. The “Relative level of p53 protein (normalized for β-actin)” value ([1]; 48 hrs after Adv/CMV/p53 transfection (MOI=1)) was 1.20, the “Effect on cell growth in vitro” value (H1299 cells; CDDP 0.0625 μg/ml for 24 hrs, alone) was “no effect on cell growth” and the “Increased inhibition of tumor proliferation compared to cells transfected with Adv/CMV/p53 only” value (H1299 cells; day 3 after p53 transfer) was 61%. The “Increased inhibition of tumor proliferation compared to cells transfected with Adv/CMV/p53 only” value (H1299 cells; day 5 after p53 transfer) was 55%, the “Percentage of positively stained cells in tumors” value (“Percentage” for short) ([2]; Ad/CMV/β-gal injected 2 days after CDDP 5 μg/g ip (CDDP) or PBS (Ad/CMV/β-gal control)) was 46.0±4.3% and the “Percentage” value ([2]; Ad/CMV/β-gal injected 4 days after CDDP 5 μg/g ip (CDDP) or PBS (Ad/CMV/β-gal control)) was 70.2±11%. For the same molecule, the “Percentage” value ([2]; Ad/CMV/β-gal injected 6 days after CDDP 5 μg/g ip (CDDP) or PBS (Ad/CMV/β-gal control)) was 23.4±5%, the “Change in β-gal gene expression” value ([2]; CDDP 5 μg/g ip and Ad/CMV/β-gal concurrently administered (day 0)) was “no change” and the “Fold increase of positively stained cells over respective control” value ([2]; gene transfer 2 days after CDDP administration) was 1.6 fold. The “Fold increase of positively stained cells over respective control” value ([2]; gene transfer 4 days after CDDP administration) was 2.8 fold, the “Cell growth, initial response” value (H460 cells [3]; CDDP at 1 and 4 μg/ml for 24 hours, cells viable by trypan blue exclusion) was “significant depression of growth to complete inhibition of proliferation” and the “Cell growth compared to control cell populations” value (H460 cells [3]; CDDP concentrations lower than 0.25 μg/ml) was “remained unchanged”. The “CDDP concentration at which maximal enhancement of β-gal gene expression occurred” value (H460 cells [4]; 24 h exposure, infected 48 hours after CDDP removal) was 0.062 µg/mL, the “Time of gene transfer after drug treatment for maximal enhancement” value (H460 cells [4]; CDDP 0.062 μg/ml) was “about 48 hours” and the “Enhancement of β-gal gene expression” value (H460 cells [4]; CDDP at 0.0039 and 1 μg/ml, infected 48 hours after CDDP removal) was “also an enhancement”.
